Test results published in patent US20260023068A1, “USE OF A FBXO42 SPECIFIC INHIBITOR IN TREATING NOTCH SIGNALING-DEPENDENT DISEASE” (WESTLAKE UNIVERSITY, priority 2022, published 2026).

Columns and labels:
[1] = tested on: global protein ubiquitination; assay: Global mass spectrometry-based analysis of protein ubiquitination; assay type: cell-based; settings: global ubiquitination changes upon MLN4924 treatment (FIGS. 5E and 5F)
Protocol: (A) Endogenous RBPJ ubiquitination was measured under FBXO42 overexpression after immunoprecipitation with antibody against RBPJ and immunoblotted for Ub. Five percent lysate was used as the input control. (B) cSFB-RBPJ, hemagglutinin-ubiquitin (HA-Ub) and Myc-FBXO42 WT or AK mutant were cotransfected into HEK293T cells as indicated and treated with MG132 for 4 h. The cell lysates were incubated with S beads and analyzed by western blotting for RBPJ polyubiquitination detection. (C) Peptide sequence with ubiquitination modification identified in WT and FBXO42 KO cells. (D) HEK293T cells were cotransfected with Myc-FBXO42, HA-Ub WT along with cSFB-RBPJ WT or its lysine mutants as indicated. The cell lysates were incubated with S beads and analyzed by western blotting for RBPJ polyubiquitination detection. (E) Summary of identified peptides in global ubiquitination analysis upon MLN4924 treatment or FBXO42 depletion. (F) Percentage of ubiquitinated peptides among different groups. (G and H) Gene Ontology analysis of these proteins with differential ubiquitination modification. (I and J) Venn diagram showing the overlap between identified differential proteins with reported Notch interactors.
Global protein ubiquitination analysis was performed according to the manufacture's guidance (5562, CST). […]

[2] = tested on: FBXO42-mediated K63-linked polyubiquitination of RBPJ; assay: In vivo ubiquitination assay of RBPJ in transfected HEK293T cells; assay type: cell-based, human; settings: DMSO or MLN4924, western blotting (FIG. 4K)
Protocol: (A) cSFB-RBPJ, hemagglutinin-ubiquitin (HA-Ub) and Myc-FBXO42 WT were cotransfected into HEK293T cells as indicated and treated with or without MG132 for 4 h. The cell lysates were incubated with S beads and analyzed by western blotting for RBPJ polyubiquitination detection. (B) Immunoprecipitated endogenous RBPJ products from WT and FBXO42 KO cells were immunoblotted for Ub. (C) cSFB-RBPJ, hemagglutinin-ubiquitin (HA-Ub) and Myc-FBXO42 WT or AF mutant were cotransfected into HEK293T cells. The cell lysate was collected and analyzed for RBPJ polyubiquitination. (D) HEK293T cells were transfected with cSFB-RBPJ, Myc-FBXO42 and HA-Ub with or without FLAG-NICD1 overexpression. The cell lysates were incubated with S beads and analyzed by western blotting for RBPJ polyubiquitination detection. […] The degree of RBPJ polyubiquitination was evaluated as described above. […] The cell lysates were incubated with S beads and analyzed by western blotting for RBPJ polyubiquitination detection. […] (J) Quantitation of the results shown in (I). […] The cell lysates were analyzed for RBPJ ubiquitination. […] (P) Efficiency of RBPJ short interfering RNAs (siRNAs) detected via western blotting. […] Quantitative data are presented as mean±SEM. P values were calculated using two-tailed Student's t-tests or ANOVA for multiple comparison. *P<0.05, **P<0.01, ***P<0.001, ##P<0.01 vs. FBXO42. […]

JURKAT and HSB2 cells = assay: Cell viability, cell counting kit-8 assay; assay type: cell-based, human; settings: JURKAT and HSB2, concentration gradient, 36 h, CCK-8 (FIG. 12L)
Protocol: FBXO42-KO cells were rescued with WT FBXO42 or F-box deletion mutant and were used in the following studies. (A-C) The mRNA levels of Notch target genes in the treated HEK293T (A), JURKAT (B) and HSB2 (C) cells were determined by qPCR. (D-G) The invasion abilities of the treated JURKAT (D) and HSB2 (F) cells were evaluated using a 3D culture system with Matrigel. Scale bars, 50 μm. The respective average diameter of the spheres in D and F was summarized, respectively (E and G). (H-K) Anchorage-independent growth of the rescued JURKAT (H) and HSB2 (J) cells was measured using a soft agar colony formation assay. The number of colonies in H and J was counted and summarized, respectively (I and K). (L) JURKAT and HSB2 cells were treated with MLN4924 in a concentration-gradient manner for 36 h and then evaluated for the cell viability using cell counting kit-8 assay. (M and N) The expression of Notch target genes in MLN4924-treated JURKAT (M) and HSB2 (N) cells were determined by qPCR. (O-R) Anchorage-independent growth of MLN4924-treated JURKAT (0) and HSB2 (Q) cells was measured using soft agar colony formation assays. The number of colonies was counted and summarized (P and R). (A-R, n=3) The data are shown as the mean±SEM from the independent experiments. P values were calculated using one-way ANOVA for multiple comparisons or two-tailed Student's t-tests. *P<0.05, ** P<0.01, *** P<0.001.

## NS(=O)(=O)OC[C@@H]1C[C@@H](n2ccc3c(N[C@H]4CCc5ccccc54)ncnc32)C[C@@H]1O [MLN4924]
[1]
  percentage of ubiquitinated peptides: decreased
[2]
  FBXO42-mediated K63-linked polyubiquitination of RBPJ: effectively abrogated
JURKAT and HSB2 cells
  cell viability of leukemia cells: diminished
